Tests used:
Tumor necrosis factor [1] = target: T1, Tumor necrosis factor (Homo sapiens, UniProt P01375); assay: Binding affinity to human GST-tagged TNF extracellular domain expressed in Escherichia coli BL21(DE3)pLysS cells by fluorescence spectrophotometric analysis
Tumor necrosis factor [2] = target: T1, Tumor necrosis factor; assay: Inhibition of human TNF assessed as reduction in TNF-induced cell death of actinomycin D activated mouse L929 cells preincubated for 30 mins followed by cell addition measured after 18 to 24 hrs by crystal violet staining based spectrophotometric analysis
Tumor necrosis factor [3] = target: T1, Tumor necrosis factor; assay: Binding affinity to recombinant human TNF assessed as inhibition of TNF-TNFR1 interaction incubated for 1 hr by ELISA

T1 sequence (P01375 whole entry, the tested form may be a part): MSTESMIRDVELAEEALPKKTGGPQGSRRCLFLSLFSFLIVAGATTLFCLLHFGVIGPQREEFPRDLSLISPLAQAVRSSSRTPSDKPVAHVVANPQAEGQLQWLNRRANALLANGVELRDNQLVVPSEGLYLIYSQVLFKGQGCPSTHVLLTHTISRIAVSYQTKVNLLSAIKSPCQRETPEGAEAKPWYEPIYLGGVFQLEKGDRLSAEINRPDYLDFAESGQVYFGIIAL

Structure (SMILES) | Kd (Tumor necrosis factor [1]) | IC50 (Tumor necrosis factor [2]) | Kd (Tumor necrosis factor [1]; read-out: Kd) | IC50 (Tumor necrosis factor [3])
O=C(c1coc2ccccc2c1=O)N1CCN(Cc2cn(-c3cccc(C(F)(F)F)c3)c3ccc([N+](=O)[O-])cc23)CC1 | Not Active | Not Active |  | 
O=C(c1coc2ccccc2c1=O)N1CCN(C(=O)c2cn(-c3cccc(C(F)(F)F)c3)c3ccc([N+](=O)[O-])cc23)CC1 | Not Active | Not Active |  | 
O=C(c1ccccc1)N1CCN(C(=O)c2cn(-c3cccc(C(F)(F)F)c3)c3ccccc23)CC1 |  | Not Active | 15.2 µM | 
Cc1ccc2occ(CN(C)CCN(C)Cc3cn(-c4cccc(C(F)(F)F)c4)c4ccccc34)c(=O)c2c1 |  |  | 18.6 µM | 10 µM
CN(CCN(C)C(=O)c1cn(S(=O)(=O)c2cccc(N)c2)c2ccccc12)C(=O)c1coc2ccccc2c1=O |  |  | 0.95 µM | 20 µM
O=C(c1coc2ccccc2c1=O)N1CCN(C(=O)c2cn(-c3cccc([N+](=O)[O-])c3)c3ccc([N+](=O)[O-])cc23)CC1 |  |  | 0.74 µM | 20 µM
O=C(NCCCNC(=O)c1cn(S(=O)(=O)c2ccccc2)c2ccccc12)c1ccccc1 | Not Active | Not Active |  | 
O=C(NCCCCNC(=O)c1cn(S(=O)(=O)c2ccccc2)c2ccccc12)c1ccc2ccccc2c1 |  | Not Active | 18.7 µM | 
Nc1cccc(S(=O)(=O)n2cc(C(=O)N3CCN(C(=O)c4coc5ccccc5c4=O)CC3)c3ccccc32)c1 |  |  | 5.45 µM | 40 µM
O=C(c1ccccc1F)N1CCN(C(=O)c2c[nH]c3ccc([N+](=O)[O-])cc23)CC1 |  | Not Active | 17.9 µM | 
CN(CCN(C)C(=O)c1cn(-c2cccc(N)c2)c2ccccc12)C(=O)c1coc2ccccc2c1=O |  | Not Active | 35.2 µM | 
O=C(NCCCNC(=O)c1cn(S(=O)(=O)c2ccccc2)c2ccccc12)c1coc2ccccc2c1=O |  |  | 5.2 µM | 40 µM
CN(CCN(C)C(=O)c1cn(S(=O)(=O)c2ccccc2)c2ccccc12)C(=O)c1ccccc1 |  | Not Active | 17.3 µM | 
CN(CCN(C)C(=O)c1cn(S(=O)(=O)c2ccccc2)c2ccccc12)C(=O)c1ccccc1F | Not Active | Not Active |  | 
O=C(c1coc2ccccc2c1=O)N1CCN(C(=O)c2cn(S(=O)(=O)c3ccccc3)c3ccccc23)CC1 |  |  | 12.8 µM | 40 µM
CN(CCN(C)C(=O)c1cn(-c2cccc(C(F)(F)F)c2)c2ccc([N+](=O)[O-])cc12)C(=O)c1ccccc1F |  | Not Active | 10.3 µM | 
O=C(c1ccc2ccccc2c1)N1CCN(C(=O)c2cn(-c3cccc(C(F)(F)F)c3)c3ccccc23)CC1 | Not Active | Not Active |  | 
CN(CCN(C)C(=O)n1ccnc1)C(=O)c1cn(S(=O)(=O)c2ccccc2)c2ccccc12 | Not Active | Not Active |  | 
O=C(c1ccc2ccccc2c1)N1CCN(C(=O)c2cn(S(=O)(=O)c3ccccc3)c3ccccc23)CC1 | Not Active | Not Active |  | 
Nc1cccc(-n2cc(C(=O)N3CCN(C(=O)c4coc5ccccc5c4=O)CC3)c3ccccc32)c1 |  |  | 14.1 µM | 20 µM
Nc1cccc(-n2cc(C(=O)N3CCN(C(=O)C4COc5ccccc5C4=O)CC3)c3cc(N)ccc32)c1 (configuration not stated) | Not Active | Not Active |  | 

Structure (SMILES) | Kd (Tumor necrosis factor [1]) | IC50 (Tumor necrosis factor [2]) | Kd (Tumor necrosis factor [1]; read-out: Kd) | IC50 (Tumor necrosis factor [3])
O=C(c1coc2ccccc2c1=O)N1CCN(C(=O)c2cn(-c3cccc([N+](=O)[O-])c3)c3ccccc23)CC1 |  | Not Active | 25.4 µM | 
O=C(c1ccccc1)N1CCN(Cc2cn(-c3cccc(C(F)(F)F)c3)c3ccccc23)CC1 |  |  | 2.14 µM | 20 µM
Cc1ccc2occ(CN3CCN(Cc4cn(-c5cccc(C(F)(F)F)c5)c5ccccc45)CC3)c(=O)c2c1 |  |  | 4.78 µM | 15 µM
CN(CCN(C)C(=O)c1cn(S(=O)(=O)c2cccc([N+](=O)[O-])c2)c2ccccc12)C(=O)c1coc2ccccc2c1=O |  |  | 3.16 µM | 40 µM
Nc1cccc(-n2cc(C(=O)N3CCN(C(=O)c4coc5ccccc5c4=O)CC3)c3cc(N)ccc32)c1 |  |  | 15.6 µM | 40 µM
CN(CCN(C)C(=O)c1cn(S(=O)(=O)c2ccccc2)c2ccccc12)C(=O)c1ccc2ccccc2c1 |  | Not Active | 25 µM | 
O=C(c1ccc2ccccc2c1)N1CCN(Cc2cn(-c3cccc(C(F)(F)F)c3)c3ccc([N+](=O)[O-])cc23)CC1 | Not Active | Not Active |  | 
O=C(c1cn(-c2cccc(C(F)(F)F)c2)c2ccccc12)N1CCN(C(=O)n2ccnc2)CC1 |  | Not Active | > 35 µM | 
CN(CCN(C)C(=O)c1cn(S(=O)(=O)c2ccccc2)c2ccccc12)C(=O)c1coc2ccccc2c1=O |  |  | 7 µM | > 60 µM
Cc1cc2occ(CN3CCN(Cc4cn(-c5cccc(C(F)(F)F)c5)c5ccccc45)CC3)c(=O)c2cc1C |  |  | 10.1 µM | 15 µM
Cc1cc2occ(C(=O)N3CCN(C(=O)c4cn(-c5cccc(C(F)(F)F)c5)c5ccccc45)CC3)c(=O)c2cc1C |  | Not Active | 5.12 µM | 
CN(CCN(C)C(=O)c1cn(S(=O)(=O)c2ccccc2)c2ccccc12)C(=O)c1cccs1 |  | Not Active | 8.22 µM | 
O=C(c1coc2ccccc2c1=O)N1CCN(Cc2cn(-c3cccc(C(F)(F)F)c3)c3ccccc23)CC1 |  |  | 1.61 µM | 20 µM
O=C(NCCNC(=O)c1cn(S(=O)(=O)c2ccccc2)c2ccccc12)c1ccc2ccccc2c1 |  | Not Active | > 35 µM | 
O=C(c1ccc2ccccc2c1)N1CCN(Cc2cn(-c3cccc(C(F)(F)F)c3)c3ccccc23)CC1 |  |  | 7.82 µM | 40 µM
O=C(c1coc2ccccc2c1=O)N1CCN(C(=O)c2cn(S(=O)(=O)c3cccc([N+](=O)[O-])c3)c3ccccc23)CC1 |  |  | 16.8 µM | 40 µM
O=C(c1cccs1)N1CCN(C(=O)c2c[nH]c3ccc([N+](=O)[O-])cc23)CC1 |  | Not Active | 10.7 µM | 
Cc1cc2occ(C(=O)N(C)CCN(C)C(=O)c3cn(-c4cccc(C(F)(F)F)c4)c4ccccc34)c(=O)c2cc1C |  |  | 2.51 µM | > 60 µM
CN(CCN(C)C(=O)c1cn(-c2cccc(C(F)(F)F)c2)c2ccc([N+](=O)[O-])cc12)C(=O)c1coc2ccccc2c1=O |  | Not Active | 13.3 µM | 
CN(CCN(C)C(=O)c1cn(-c2cccc([N+](=O)[O-])c2)c2ccccc12)C(=O)c1coc2ccccc2c1=O |  | Not Active | 12.2 µM | 

— ChEMBL document CHEMBL3739283, “Synthesis and biological evaluation of potential small moleculeinhibitors of tumor necrosis factor” (Medchemcomm, 2015)
